Patent publication EP0091528A1, “-N-(1-propyl-2-pyrrolidylmethyl)-2-methoxy-5-sulfamoyl benzamide and its use against some sorts of depression” (priority 1982, dated 1983)
Values joined by “and” are separate entries in the source; they are usually repeats but may differ in a detail not shown here. Equal values may be shown once. Read-outs that look alike come from different tables or passages of the source.

Assays:
[1] = system: récepteurs dopamine du centre du vomissement; test: Antiemetic power in the dog (apomorphine-induced emesis); format: in vivo; settings: vomiting induced by apomorphine
From the text: D'une façon générale, ces dérivés benzamides interfèrent dans les mécanismes dopaminergiques du système nerveux. Leurs effets bloquants sur les récepteurs dopamine centraux leur confèrent des propriétés neuroleptiques. Leur effet bloquant sur les récepteurs dopamine du centre du vomissement se traduit par un puissant antagonisme à l'égard de l'effet émétisant de certains agonistes dopaminergiques, tels que l'apomorphine et les alcaloïdes de l'ergot de seigle.
Au plan pharmacologique, les interférences des deux composés dans le système dopamine ont été comparées par différents tests adaptés à la mise en évidence des effets antagonistes et agonistes. Il en résulte que : • 1) - le composé selon l'invention et le Sulpiride sont de très puissants antagonistes dans le test de l'emesis chez le chien où les vomissements sont provoqués par l'agoniste apomorphine.
Les valeurs des DE 50 montrent que les activités des deux composés sont équivalentes.

[2] = system: stéréotypies induites chez le Rat par l'apomorphine (agoniste direct); test: Potentiation of apomorphine-induced stereotypies in the rat; format: in vivo; settings: for DE50 vis-à-vis de l'apomorphine: Bliss method, two trials not named
Experimental: (§1) A cet effet, le composé de l'invention a été étudié vis-à-vis de la potentialisation des stéréotypies induites chez le Rat par deux agonistes dopaminergiques, l'apomorphine (agoniste direct) et la d-amphétamine (agoniste indirect).
(§2) Dans les deux essais, la dose d'agoniste est choisie telle qu'elle n'entraîne pas, chez tous les animaux d'expérience, l'apparition de mouvements stéréotypés de la sphère buccale de type léchage ou mâchonnement (Apomorphine : 0,250 mg.kg^-1 S.C. - d-amphétamine : 3 mg.kg^-1 I.P.).
(§3) L'observation de ce comportement stéréotypé chez un plus grand nombre d'animaux consécutif à l'administration de doses croissantes du composé de l'invention, injectées par voie I.P. 30 minutes avant l'agoniste, traduit un renforcement dopaminergique.
(§4) Les DE50 déterminées par la méthode de Bliss assortie des limites de confiance à 95% sont de 10,8 et 8,9 mg.kg.^-1 I.P. vis-à-vis de l'apomorphine et 1,4 et 2,6 mg.kg^-1 vis-à-vis de la d-amphétamine.

[3] = Acute toxicity, LD50 in mice by different routes; format: in vivo; settings: souris; for LD50: mouse, in vivo, read-out: DL 50 (the source's name)
From the text: Au plan toxicologique, la détermination des DL 50 des deux produits administrés chez la souris par différentes voies ne révèle aucune différence majeure, le Sulpiride étant toutefois un peu moins toxique par voie buccale.

[4] = system: récepteurs dopamine centraux; test: Inhibition of apomorphine-induced rearing (climbing) movement in mice; format: in vivo; settings: souris, I.P., apomorphine 1 mg/kg S.C.
Experimental: 2) - Les deux composés ne se distinguent pas non plus quand leur propriété antagoniste dopaminergique centrale est jugée par exemple d'après l'inhibition qu'ils provoquent du mouvement de redressement induit chez la souris par l'apomorphine (1 mg/kg S.C.).
Les doses inhibitrices 50 de ce mouvement sont voisines pour les deux composés, respectivement : […]

[5] = system: stéréotypies induites chez le Rat par la d-amphétamine (agoniste indirect); test: Potentiation of d-amphetamine-induced stereotypies in the rat; format: in vivo; settings: for DE50 vis-à-vis de la d-amphétamine: Bliss method, two trials not named
Experimental: as §1, §2, §3, §4

[6] = Double-blind comparative clinical trial versus imipramine in depression; format: in vivo, humaine; settings: for tolérance tant clinique que biologique: 450 mg par jour (compound), 150 mg par jour (IMIPRAMINE)
Experimental: En conséquence, un essai clinique comparatif en double aveugle a été mené mettant en oeuvre le composé selon l'invention et l'IMIPRAMINE, produit de référence indiscutable dans le traitement de certains états dépressifs.
Les posologies retenues ont été fixées : • . pour l'IMIPRAMINE en fonction des données acquises et de la posologie préconisée par le fabricant, c'est-à-dire : 150 mg par jour, dose atteinte progressivement en 5 jours; • . pour le composé selon l'invention, à partir des données recueillies par les études antérieures, c'est-à-dire : 450 mg par jour. Bien que cette posologie puisse, du fait de l'excellente tolérance du produit, être administrée d'emblée, pour se plier aux règles du double-aveugle et respecter le mode d'administration optimum pour l'IMIPRAMINE, cette dose n'a également été atteinte que le Sème jour après deux paliers successifs de : 150 et 300 mg par jour. Toutefois d'autres études permettent de penser que des doses plus faibles du composé selon l'invention aboutissent à des résultats similaires.
Ces doses ont été administrées pendant 28 jours consécutifs en mono- thérapie, dans toute la mesure du possible.
Pouvaient entrer dans l'étude, les sujets présentant une dépression authentique c'est-à-dire atteignant le score de 36 à la version simplifiée à 17 items de l'échelle de Hamilton.
La comparaison entre les deux produits a porté sur l'efficacité thérapeutique et sur la tolérance, 34 cas ayant été analysés. Pour établir cette comparaison, le protocole prévoyait trois bilans : • . avant le début du traitement (JO) • . au 10ème jour (J10) • . au 28ème jour (J28)
Chacun de ces bilans comportait obligatoirement : • . une B.P.R.S. • une échelle de Hamilton (26 items) • une appréciation par l'expert de 1"'intensité du syndrome dépressif" • une recherche des troubles somatiques associés à l'état dépressif.
De plus, à JO et à J28, il a été pratiqué une auto-appréciation de son état par le malade (S.D.S.) et un bilan biologique standard.
Enfin, en fin de traitement, il a été convenu d'exprimer une impression subjective globale sur l'intérêt du traitement pour chaque observation.

[7] = Essai I, 4 mg.kg^-1 I.P. 30 min before Apomorphine 0,250 mg.kg^-1 S.C.
[8] = Essai I, 8 mg.kg^-1 I.P. 30 min before Apomorphine 0,250 mg.kg^-1 S.C.
[9] = Essai I, 16 mg.kg^-1 I.P. 30 min before Apomorphine 0,250 mg.kg^-1 S.C.
[10] = Essai I, 2 mg.kg^-1 I.P. 30 min before d-Amphétamine 3 mg.kg^-1 I.P.
[11] = Essai I, 4 mg.kg^-1 I.P. 30 min before d-Amphétamine 3 mg.kg^-1 I.P.
[12] = Essai I, 8 mg.kg^-1 I.P. 30 min before d-Amphétamine 3 mg.kg^-1 I.P.
[13] = Essai II, 4 mg.kg^-1 I.P. 30 min before Apomorphine 0,250 mg.kg^-1 S.C.
[14] = Essai II, 8 mg.kg^-1 I.P. 30 min before Apomorphine 0,250 mg.kg^-1 S.C.
[15] = Essai II, 16 mg.kg^-1 I.P. 30 min before Apomorphine 0,250 mg.kg^-1 S.C.
[16] = Essai II, 1 mg.kg^-1 I.P. 30 min before d-Amphétamine 3 mg.kg^-1 I.P.
[17] = Essai II, 4 mg.kg^-1 I.P. 30 min before d-Amphétamine 3 mg.kg^-1 I.P.
[18] = Essai II, 16 mg.kg^-1 I.P. 30 min before d-Amphétamine 3 mg.kg^-1 I.P.

Molecule: CCN1CCCC1CNC(=O)c1cc(S(N)(=O)=O)ccc1OC (stereo not shown) [Sulpiride, N-(1-éthyl-2-pyrrolidinyl-méthyl)-2-méthoxy-5-sulfamoyl benzamide, reference compound]
- Pouvoir antiémétique chez le chien DE 50 S.C. [1]: 3,5-4,8 γ/kg
- % d'activité [2, 7]: 15%
- Nombre d'animaux positifs/16 [2, 7]: 5
- % d'activité [2, 8]: 31%
- Nombre d'animaux positifs/16 [2, 8]: 7
- % d'activité [2, 9]: 15%
- Nombre d'animaux positifs/16 [2, 9]: 5
- DE50 mg.kg^-1 I.P. base ([2]; Essai I, I.P., base, Apomorphine 0,250 mg.kg^-1 S.C., 95% confidence limits in brackets): inactif
- DE50 vis-à-vis de l'apomorphine ([2]; I.P.): inactif
- LD50 ([3]; ip, I.P.): 210 mg/kg
- LD50 ([3]; iv, I.V.): 43.5 to 44 mg/kg
- LD50 ([3]; po, P.O.): 1800 to 2890 mg/kg
- LD50 ([3]; sc, S.C.): 372 mg/kg
- doses inhibitrices 50 du mouvement de redressement [4]: 22 mg/kg I.P.
- DE50 vis-à-vis de la d-amphétamine [5]: inactif
- % d'activité [5, 10]: 6%
- Nombre d'animaux positifs/16 [5, 10]: 1
- % d'activité [5, 11]: 13%
- Nombre d'animaux positifs/16 [5, 11]: 2
- % d'activité [5, 12]: 6%
- Nombre d'animaux positifs/16 [5, 12]: 1
- DE50 mg.kg^-1 I.P. base ([5]; Essai I, I.P., base, d-Amphétamine 3 mg.kg^-1 I.P., 95% confidence limits in brackets): inactif

Molecule: N-(1-propyl-2-pyrrolidylméthyl)-2-méthoxy-5-sulfamoyl benzamide [Composé selon l'invention]
- tolérance tant clinique que biologique ([6]; 28 days): moindre fréquence de l'apparition ou de l'aggravation d'une symptomatologie somatique
- efficacité ([6]; compared with IMIPRAMINE 150 mg par jour, compound 450 mg par jour, 28 days): au moins égale à celle de l'IMIPRAMINE
- rapidité d'action sur l'état dépressif ([6]; compared with IMIPRAMINE, J10 versus J28): agit plus rapidement sur l'état dépressif que l'IMIPRAMINE
- Pouvoir antiémétique chez le chien DE 50 S.C. [1]: 4,1 γ/kg
- % d'activité [2, 7]: 23%
- Nombre d'animaux positifs/16 [2, 7]: 6
- % d'activité [2, 8]: 46%
- Nombre d'animaux positifs/16 [2, 8]: 9
- % d'activité [2, 9]: 69%
- Nombre d'animaux positifs/16 [2, 9]: 12
- % d'activité [2, 13]: 7%
- Nombre d'animaux positifs/16 [2, 13]: 2
- % d'activité [2, 14]: 33%
- Nombre d'animaux positifs/16 [2, 14]: 6
- % d'activité [2, 15]: 67%
- Nombre d'animaux positifs/16 [2, 15]: 11
- DE50 vis-à-vis de l'apomorphine ([2]; I.P., listed as composé de l'invention): 10,8 mg.kg^-1 and 8,9 mg.kg^-1
- DL 50 ([3]; I.P.): 181 to 203 mg/kg
- DL 50 ([3]; I.V.): 51,7-52,6 mg/kg
- DL 50 ([3]; P.O.): 1411 to 1423 mg/kg
- DL 50 ([3]; S.C.): 337 to 363 mg/kg
- doses inhibitrices 50 du mouvement de redressement [4]: 32 mg/kg I.P.
- DE50 vis-à-vis de la d-amphétamine ([5]; listed as composé de l'invention): 1,4 mg.kg^-1 and 2,6 mg.kg^-1
- % d'activité [5, 10]: 38%
- Nombre d'animaux positifs/16 [5, 10]: 6
- % d'activité [5, 11]: 69%
- Nombre d'animaux positifs/16 [5, 11]: 11
- % d'activité [5, 12]: 88%
- Nombre d'animaux positifs/16 [5, 12]: 14
- % d'activité [5, 16]: 38%
- Nombre d'animaux positifs/16 [5, 16]: 6
- % d'activité [5, 17]: 81%
- Nombre d'animaux positifs/16 [5, 17]: 13
- % d'activité [5, 18]: 94%
- Nombre d'animaux positifs/16 [5, 18]: 15

Molecule: CN(C)CCCN1c2ccccc2CCc2ccccc21 [IMIPRAMINE, reference compound]
- tolérance tant clinique que biologique ([6]; 28 days): troubles de la série anticholinergique nettement plus importants et plus sévères
